Laboratory results taken from ChEMBL document CHEMBL1201862, “PubChem BioAssay data set” (2004).
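Each compound was tested at five concentrations against cells in 96-well plates for 48 hours. GI50 = concentration required for 50% inhibition of growth.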 Calls of active or inactive are those of the source. Cut-off read from the data, not from the text of the source: active = GI50 up to about 1.1 µM and inactive = higher.

How the values were obtained:
Assay in all cases: growth of human tumour cells (NCI), 48 h
HOP-92 = test system: HOP-92
HCC 2998 = test system: HCC 2998
UO-31 = test system: UO-31
MDA-MB-231 = test system: MDA-MB-231
NCI-H226 = test system: NCI-H226
NCI/ADR-RES = test system: NCI/ADR-RES
SK-MEL-5 = test system: SK-MEL-5
SW-620 = test system: SW-620
SF-539 = test system: SF-539
HL-60 = test system: HL-60
NCI-H522 = test system: NCI-H522
EKVX = test system: EKVX
HCT-15 = test system: HCT-15
MCF7 = test system: MCF7
HOP-62 = test system: HOP-62
BT-549 = test system: BT-549
SNB-75 = test system: SNB-75
OVCAR-5 = test system: OVCAR-5
Hs-578T = test system: Hs-578T
K562 = test system: K562

Structure (SMILES)	GI50 (HOP-92)	GI50 (HCC 2998)	GI50 (UO-31)	GI50 (MDA-MB-231)	GI50 (NCI-H226)	GI50 (NCI/ADR-RES)	GI50 (SK-MEL-5)	GI50 (SW-620)	GI50 (SF-539)	GI50 (HL-60)	GI50 (NCI-H522)	GI50 (EKVX)	GI50 (HCT-15) [µM]	GI50 (MCF7)	GI50 (HOP-62)	GI50 (BT-549)	GI50 (SNB-75)	GI50 (OVCAR-5)	GI50 (Hs-578T)	GI50 (K562)
COc1cc(OC)c2c(O)c3c(cc2c1)CC(C)(C)CC3=O	> 100 µM (inactive)	> 100 µM (inactive)	> 100 µM (inactive)	> 100 µM (inactive)	> 100 µM (inactive)	> 100 µM (inactive)	> 100 µM (inactive)	59 µM (inactive)	> 100 µM (inactive)	> 32.7 µM (inactive)	> 64.3 µM (inactive)	> 100 µM (inactive)	> 100	> 100 µM (inactive)	97.3 µM (inactive)	> 100 µM (inactive)	49.7 µM (inactive)	> 100 µM (inactive)	16.3 µM (inactive)	
CCOC(=O)C(NC(=O)CC)(Nc1ccc(S(=O)(=O)Nc2nc(C)cc(C)n2)cc1)C(F)(F)F (stereo unspecified)	> 100 µM (inactive)	> 100 µM (inactive)	> 100 µM (inactive)	> 100 µM (inactive)	> 100 µM (inactive)	> 100 µM (inactive)	> 100 µM (inactive)	> 100 µM (inactive)	> 100 µM (inactive)	> 100 µM (inactive)	31.6 µM (inactive)	> 100 µM (inactive)	> 100	36.6 µM (inactive)	> 100 µM (inactive)	> 100 µM (inactive)	> 100 µM (inactive)	> 100 µM (inactive)	> 100 µM (inactive)	> 100 µM (inactive)
N=c1oc2c(Br)cc(Br)cc2cc1C(=O)Nc1ccccn1	> 100 µM (inactive)	> 100 µM (inactive)		> 100 µM (inactive)	84.9 µM (inactive)	61.4 µM (inactive)	63.1 µM (inactive)	> 100 µM (inactive)	31.8 µM (inactive)	57.5 µM (inactive)	47.2 µM (inactive)	> 100 µM (inactive)	38.9	39.9 µM (inactive)	53 µM (inactive)	> 100 µM (inactive)	> 100 µM (inactive)	> 100 µM (inactive)	64.4 µM (inactive)	> 100 µM (inactive)
COC1(CC[C@@H](C)COC2OC(CO)C(O)C(O)C2O)O[C@H]2C[C@H]3[C@@H]4CC=C5C[C@@H](OC6OC(CO)C(OC7OC(C)C(O)C(O)C7O)C(O)C6OC6OC(C)C(O)C(O)C6O)CC[C@]5(C)[C@H]4CC[C@]3(C)[C@H]2[C@@H]1C (stereo partly specified)	3.25 µM (inactive)	3.74 µM (inactive)	2.92 µM (inactive)	1.6 µM (inactive)	9.18 µM (inactive)	3.18 µM (inactive)	6.12 µM (inactive)	1.14 µM (inactive)	1.89 µM (inactive)	18.2 µM (inactive)	2.08 µM (inactive)	22.1 µM (inactive)	1.98	6.28 µM (inactive)	2.56 µM (inactive)	3.52 µM (inactive)	2.06 µM (inactive)	4.41 µM (inactive)	2.55 µM (inactive)	18.2 µM (inactive)
CC(=O)C(C(=O)c1ccc(C)cc1)[C@@H]1OC(C)(C)O[C@@H]1[C@H]1COC(C)(C)O1 (stereo partly specified)	35.2 µM (inactive)	25.1 µM (inactive)	12.7 µM (inactive)	10.5 µM (inactive)		9.93 µM (inactive)	12.1 µM (inactive)	3.55 µM (inactive)	5.79 µM (inactive)	1.67 µM (inactive)	4.89 µM (inactive)	23.9 µM (inactive)	8.3	3.48 µM (inactive)	10.5 µM (inactive)	15 µM (inactive)	13.4 µM (inactive)	40.9 µM (inactive)	3.84 µM (inactive)	2.05 µM (inactive)
C=C1C(=O)OC2/C=C(\CO)CC/C=C(\CO)CC(OC(=O)C(C)C)C12 (stereo unspecified)	1.27 µM (inactive)	20.7 µM (inactive)	14 µM (inactive)	20.1 µM (inactive)	16 µM (inactive)	17.6 µM (inactive)	19 µM (inactive)	4.41 µM (inactive)	14.9 µM (inactive)	2.87 µM (inactive)	1.56 µM (inactive)	16.4 µM (inactive)	3.19	2.66 µM (inactive)	19.2 µM (inactive)	7.94 µM (inactive)	16.5 µM (inactive)	15.9 µM (inactive)	19.9 µM (inactive)	1.71 µM (inactive)
Nc1csc(-c2scc3c2OCCO3)c1N	19.4 µM (inactive)	22.4 µM (inactive)	17.9 µM (inactive)	20.6 µM (inactive)	17.3 µM (inactive)	22.6 µM (inactive)	14.9 µM (inactive)	26.2 µM (inactive)	24.9 µM (inactive)	20.5 µM (inactive)	16.3 µM (inactive)	18.2 µM (inactive)	17.7	16.4 µM (inactive)	15.6 µM (inactive)	16.5 µM (inactive)		17.6 µM (inactive)	27.8 µM (inactive)	24.4 µM (inactive)
